According to patent publication US20260131020A1, “IONIZABLE CATIONIC LIPID FOR RNA DELIVERY” (Arcturus Therapeutics, Inc., priority 2016, published 2026):

Legend:
[1] = Titration of lipids to measure pKa; format: physicochemical; conditions: lipids titrated
Description: The lipids were titrated to measure their pKa values.

epo protein = assay: In vivo epo protein expression after delivery of lipid encapsulated mouse epo mRNA (epo ELISA); design: species or system Female Balb/c mice; conditions: mouse epo mRNA nanoparticles, i.v. tail vein, at 0.1 mg/kg (so in the source), serum at 6 hours; FIG. 16
Procedure: Female Balb/c mice (6-8 week old) were used for evaluation of epo protein expression in vivo following delivery of lipid encapsulated mouse epo mRNA. All formulations were administered intravenously via tail vein injection at a dose of 0.03 and 0.1 mg/kg at a dosing volume of 5 mL/kg. Terminal blood collection was performed via cardiac puncture under 2% isoflurane at 6 hours after formulation injections. Blood was collected into 0.109 M citrate buffer tube and processed by centrifugation at 5000 rpm for 10 minutes. Serum was collected and epo protein levels were analyzed by epo ELISA assay (R&D systems). A standard curve was constructed using samples from PBS-injected mice and relative epo expression was determined by comparing treated groups to untreated PBS control.

Factor VII = assay: In vivo mouse Factor VII siRNA knockdown (chromogenic assay of plasma Factor VII protein); design: species or system Female C57BL/6 mice; conditions: Factor VII siRNA formulations, i.v. tail vein, both at 0.03 and 0.1 mg/kg, plasma at 48 hours; FIG. 15
Procedure: Using a liver-directed in vivo screen of the liposome libraries, a series of compounds were tested that facilitate high levels of siRNA mediated gene silencing in hepatocytes, the cells comprising the liver parenchyma. Factor VII, a blood clotting factor, is a suitable target gene for assaying functional siRNA delivery to liver. Because this factor is produced specifically in hepatocytes, gene silencing indicates successful delivery to parenchyma, as opposed to delivery to the cells of the reticulo-endothelial system (e.g., Kupffer cells). Furthermore, Factor VII is a secreted protein that can be readily measured in serum, obviating the need to euthanize animals. Silencing at the mRNA level can be readily determined by measuring levels of protein. This is because the protein's short half-life (2-5 hour). Compositions with siRNA directed to Factor VII were formulated with ATX-002, ATX-57, and ATX-58, and comparator sample phosphate-buffered saline (PBS). Female C57BL/6 mice (6-8 week old) were used for FVII siRNA knockdown (KD) experiments. […] Plasma was collected and Factor VII protein levels were analyzed by chromogenic assay (Biophen FVII, Aniara Corporation). A standard curve was constructed using samples from PBS-injected mice and relative Factor VII expression was determined by comparing treated groups to untreated PBS control.

mouse epo mRNA = assay: In vivo EPO mRNA stability: epo mRNA levels after injection of lipid encapsulated mouse epo mRNA; design: species or system Female Balb/c mice; conditions: nanoparticles with the cationic lipid, i.v. tail vein, 0.03 and 0.1 mg/kg mRNA, blood at 6 hours; FIG. 14
Procedure: Levels of mRNA in plasma were measured and compared following injection of nanoparticles comprising different cationic lipids. Female Balb/c mice (6-8 week old) were used for evaluation of plasma erythropoietin (epo) levels in vivo following injection of lipid encapsulated mouse epo mRNA. All formulations were administered intravenously via tail vein injection at a dose of 0.03 and 0.1 mg/kg at a dosing volume of 5 ml/kg. Terminal blood collection was performed via cardiac puncture under 2% isoflurane at 6 hours after formulation injections. Blood was collected into 0.109 M citrate buffer tube and processed by centrifugation at 5000 rpm for 10 minutes. Serum was collected and epo mRNA levels were analyzed. Results are shown at FIG. 14.

| SMILES | pKa [1] | epo expression compared with ATX-2 (epo protein) | Factor VII knockdown activity compared with ATX-002 (Factor VII) | epo mRNA levels compared with ATX-2 (mouse epo mRNA) |
| --- | --- | --- | --- | --- |
| CCCCCC/C=C\COC(=O)CCCCCN(CCC(=O)OC(CCCCCCC)CCCCCCC)C(=O)SCCN(C)C [ATX-82] |  |  |  | substantial improvement over ATX-2 |
| CCCCCC/C=C\COC(=O)CCCCCN(CCCC(=O)OC(CCCCCCC)CCCCCCC)C(=O)SCCN(C)C [ATX-83] |  |  |  | substantial improvement over ATX-2 |
| CCCCCC/C=C\COC(=O)CCCN(CCCC(=O)OC(CCCCCC)CCCCCC)C(=O)SCCN(C)C [ATX-86] |  |  |  | substantial improvement over ATX-2 |
| CCCCCC/C=C\COC(=O)CCCN(CCCC(=O)OC(CCCCCCCC)CCCCCCCC)C(=O)SCCN(C)C [ATX-87] |  |  |  | substantial improvement over ATX-2 |

The next lines start with results.

| pKa [1] | SMILES | epo expression compared with ATX-2 (epo protein) | Factor VII knockdown activity compared with ATX-002 (Factor VII) | epo mRNA levels compared with ATX-2 (mouse epo mRNA) |
| --- | --- | --- | --- | --- |
| 6 | CCCCCC/C=C\COC(=O)CCCN(CCCC(=O)OC(CCCCCCC)CCCCCCCC)C(=O)SCCN(C)C (centres unmarked) [ATX-57] | substantially higher amounts | substantially more effective than ATX-002 | substantial improvement over ATX-2 |
| 6.1 | CCCCCC/C=C\COC(=O)CCCN(CCCC(=O)OC(CCCCCC)CCCCCCC)C(=O)SCCN(C)C (centres unmarked) [ATX-58] |  | substantially more effective than ATX-002 |  |
| 5.9 | CCCCCC/C=C\COC(=O)CCCN(CCCC(=O)OC(CCCCCCC)CCCCCCC)C(=O)SCCN(C)C [ATX-81] |  |  | substantial improvement over ATX-2 |
| 6.1 | CCCCCC/C=C\COC(=O)CCCCCN(CCCC(=O)OC(CCCCCC)CCCCCC)C(=O)SCCN(C)C [ATX-84] |  |  | substantial improvement over ATX-2 |
